Data on 14 compounds can be found in patent publication US7153855B2, “Pyrazolopyridinyl pyrimidine therapeutic compounds” (SmithKline Beecham Corporation, priority 2001, dated 2006).

A value given as a limit tells only on which side of the number the result lay.

The subject of the assay is HSV-1. Description: HSV-1 infection of Vero 76 cells, viral DNA detected by hybridization capture (chemiluminescence). The format is cell-based. To be noted: Human alphaherpesvirus 1; HSV-1 in Vero 76 cells, MOI=0.001, compounds incubated 40–48 hours at 37° C.; read-out: IC50. The method, boiled down: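 Vero 76 cells infected 45 min at 37° C with HSV-1 (MOI=0.001), seeded at 5×10^4 cells/well in 2% FBS medium with compounds, incubated 40–48 h, then lysed in 0.2 N NaOH/1% detergent. Viral DNA captured by UL13 plasmid, hybridized overnight at 42° C with digoxigenin-labeled UL15 probe, detected by anti-digoxigenin-HRP chemiluminescence.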
One may read the IC50 as the midpoint of a concentration-inhibition curve. As for `COc1ccc(-c2nn3c(N4CCOCC4)cccc3c2-c2ccnc(NC3CC3)n2)cc1` [Example 63, N-Cyclopropyl-4-[2-(4-methoxyphenyl)-7-(4-morpholinyl)pyrazolo[1,5-a]pyridin-3-yl]-2-pyrimidinamine], the IC50 was found to be 1200 nM.

As for `CCCCNc1nccc(-c2c(-c3ccc(N)cc3)nn3c(NCCCC)cccc23)n1` [Example 16, N-{4-[2-(4-Aminophenyl)-7-(butylamino)pyrazolo[1,5-a]pyridin-3-yl]-2-pyrimidinyl}-N-butylamine], the half-inhibitory concentration (IC50) is 1000 nM.

With `COc1ccc(-c2nn3c(NC4CC4)cccc3c2-c2ccnc(NC3CCCC3)n2)cc1` [Example 60, 3-[2-(Cyclopentylamino)-4-pyrimidinyl]-N-cyclopropyl-2-(4-methoxyphenyl)pyrazolo[1,5-a]pyridin-7-amine], the half-maximal inhibitory concentration (IC50) came to 400 nM.

For the compound `COCCNc1cccc2c(-c3ccnc(NC4CCCC4)n3)c(-c3cccc(F)c3)nn12` [Example 106, 3-[2-(Cyclopentylamino)-4-pyrimidinyl]-2-(3-fluorophenyl)-N-(2-methoxyethyl)pyrazolo[1,5-a]pyridin-7-amine], the IC50 was 200 nM.

For the compound `Cc1cccc(-c2nn3c(NC4CCCC4)cccc3c2-c2nc(NC3CCCC3)nc(C)c2C)c1` [Example 48, N-cyclopentyl-3-[2-(cyclopentylamino)-5,6-dimethyl-4-pyrimidinyl]-2-(3-methylphenyl)pyrazolo[1,5-a]pyridin-7-amine], the IC50 was greater than 40000 nM.

In the case of `COc1ccc(-c2nn3c(NCCN4CCOCC4)cccc3c2-c2ccnc(NC3CC3)n2)cc1` [Example 65, 3-[2-(Cyclopropylamino)-4-pyrimidinyl]-2-(4-methoxyphenyl)-N-[2-(4-morpholinyl)ethyl]pyrazolo[1,5-a]pyridin-7-amine], the 50% inhibitory concentration (IC50) was 500 nM.

On to `COc1ccc(-c2nn3c(NCCN)cccc3c2-c2ccnc(NC3CCCC3)n2)cc1` [Example 96, N′-[3-[2-(Cyclopentylamino)-4-pyrimidinyl]-2-(4-methoxyphenyl)pyrazolo[1,5-a]pyridin-7-yl]-1,2-ethanediamine], for which the IC50 stood at 1100 nM.

Take `Nc1cc(-c2nn3c(NC4CCCC4)cccc3c2-c2ccnc(NC3CCCC3)n2)ccc1Cl` [Example 44, 2-(3-Amino-4-chlorophenyl)-N-cyclopentyl-3-[2-(cyclopentylamino)-4-pyrimidinyl]pyrazolo[1,5-a]pyridin-7-amine]: the IC50 was 1800 nM.

As for `c1cc(-c2cccs2)cc(-c2nn3c(NC4CCCC4)cccc3c2-c2ccnc(NC3CCCC3)n2)c1` [Example 33, N-Cyclopentyl-3-[2-(cyclopentylamino)-4-pyrimidinyl]-2-[3-(2-thienyl)-phenyl]pyrazolo[1,5-a]pyridin-7-amine], the half-maximal inhibitory concentration (IC50) was 800 nM.

Consider `CCCCNc1nccc(-c2c(-c3ccc(Nc4ccccc4)cc3)nn3c(N(CCCC)c4ccccc4)cccc23)n1` [Example 20, 2-(4-Anilinophenyl)-N-butyl-3-[2-(butylamino)-4-pyrimidinyl]-N-phenylpyrazolo[1,5-a]pyridin-7-amine], for which the half-maximal inhibitory concentration (IC50) was determined as 16000 nM.

With `CCCCNc1nccc(-c2c(-c3ccc(N(CC4CC4)CC4CC4)cc3)nn3c(NCCCC)cccc23)n1` [Example 21, 2-{4-[Bis(cyclopropylmethyl)amino]phenyl}-N-butyl-3-[2-(butylamino)-4-pyrimidinyl]pyrazolo[1,5-a]pyridin-7-amine], the IC50 came to 15000 nM.

In the case of `COC(=O)CNc1cccc2c(-c3ccnc(NC4CCCC4)n3)c(-c3ccc(OC)cc3)nn12` [Example 79, Methyl N-[3-[2-(cyclopentylamino)pyrimidin-4-yl]-2-(4-methoxyphenyl)pyrazolo[1,5-a]pyridin-7-yl]glycinate], the IC50 is 2500 nM.

Turning to `N#Cc1cccc(-c2nn3c(NC4CCCC4)cccc3c2-c2ccnc(NC3CCCC3)n2)c1` [Example 39, 3-{7-(Cyclopentylamino)-3-[2-(cyclopentylamino)-4-pyrimidinyl]pyrazolo[1,5-a]pyridin-2-yl}benzonitrile], the concentration for half-maximal inhibition (IC50) turned out to be 500 nM.

In the case of `COc1ccc(-c2nn3c(NCCCCNC(=N)N)cccc3c2-c2ccnc(NC3CCCC3)n2)cc1` [Example 85, N-(4-{[3-[2-(Cyclopentylamino)pyrimidin-4-yl]-2-(4-methoxyphenyl)pyrazolo[1,5-a]pyridin-7-yl]amino}butyl)guanidine], the IC50 worked out at 4000 nM.
